Measured values from US10213433B2 (AbbVie Inc., priority 2010, dated 2019).

Molecular target: Bcl-2 protein (Homo sapiens (Human), UniProt P10415)
Assay: Bcl-2 binding TR-FRET (Time-Resolved Fluorescence-Resonance-Energy-Transfer) assay
Settings: inhibition constant for binding to Bcl-2 protein
Description: The smaller the Ki value, the greater is the binding affinity.

Chain of Bcl-2 protein (P10415 whole entry): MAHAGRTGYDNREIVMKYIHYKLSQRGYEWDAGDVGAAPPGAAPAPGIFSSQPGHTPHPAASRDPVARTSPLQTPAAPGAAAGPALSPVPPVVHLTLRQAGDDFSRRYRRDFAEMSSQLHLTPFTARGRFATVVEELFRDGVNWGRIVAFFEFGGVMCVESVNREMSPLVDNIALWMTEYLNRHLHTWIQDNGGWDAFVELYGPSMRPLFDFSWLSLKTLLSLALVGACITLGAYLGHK

`CC1(C)CCC(CN2CCN(c3ccc(C(=O)NS(=O)(=O)c4ccc(NC[C@H]5CN(C6CC6)CCO5)c([N+](=O)[O-])c4)c(Oc4cnc5[nH]ccc5c4)c3)CC2)=C(c2ccc(Cl)cc2)C1` [Compound 327, 4-(4-{[2-(4-chlorophenyl)-4,4-dimethylcyclohex-1-en-1-yl]methyl}piperazin-1-yl)-N-{[4-({[(2S)-4-cyclopropylmorpholin-2-yl]methyl}amino)-3-nitrophenyl]sulfonyl}-2-(1H-pyrrolo[2,3-b]pyridin-5-yloxy)benzamide] and `CC1(C)CCC(CN2CCN(c3ccc(C(=O)NS(=O)(=O)c4ccc(NC[C@H]5CN(C6COC6)CCO5)c([N+](=O)[O-])c4)c(Oc4cnc5[nH]ccc5c4)c3)CC2)=C(c2ccc(Cl)cc2)C1` [Compound 361, 4-(4-{[2-(4-chlorophenyl)-4,4-dimethylcyclohex-1-en-1-yl]methyl}piperazin-1-yl)-N-{[3-nitro-4-({[(2S)-4-(oxetan-3-yl)morpholin-2-yl]methyl}amino)phenyl]sulfonyl}-2-(1H-pyrrolo[2,3-b]pyridin-5-yloxy)benzamide] cannot be ordered by Ki: < 0.01 nM for the first, < 0.01 nM for the second.

`O=C(NS(=O)(=O)c1ccc(NCC2CCOCC2)c([N+](=O)[O-])c1)c1ccc(N2CCN(CC3=C(c4ccc(Cl)cc4)CC4(CC3)CC4)CC2)cc1Oc1cnc2[nH]ccc2c1` [Compound 328, 4-(4-{[5-(4-chlorophenyl)spiro[2.5]oct-5-en-6-yl]methyl}piperazin-1-yl)-N-({3-nitro-4-[(tetrahydro-2H-pyran-4-ylmethyl)amino]phenyl}sulfonyl)-2-(1H-pyrrolo[2,3-b]pyridin-5-yloxy)benzamide] and `O=C(NS(=O)(=O)c1ccc(NCC2CN(C3CC3)CCO2)c([N+](=O)[O-])c1)c1ccc(N2CCN(CC3=C(c4ccc(Cl)cc4)CC4(CC3)CC4)CC2)cc1Oc1cnc2[nH]ccc2c1` (stereo not shown) [Compound 330, 4-(4-{[5-(4-chlorophenyl)spiro[2.5]oct-5-en-6-yl]methyl}piperazin-1-yl)-N-[(4-{[(4-cyclopropylmorpholin-2-yl)methyl]amino}-3-nitrophenyl)sulfonyl]-2-(1H-pyrrolo[2,3-b]pyridin-5-yloxy)benzamide] cannot be ordered by Ki: < 0.01 nM for the first, < 0.01 nM for the second.

`CC1(C)CCC(CN2CCN(c3ccc(C(=O)NS(=O)(=O)c4ccc(NC5CCC(N(CCC#N)C6CC6)CC5)c([N+](=O)[O-])c4)c(Oc4cnc5[nH]ccc5c4)c3)CC2)=C(c2ccc(Cl)cc2)C1` (stereo not shown) [Compound 340, 4-(4-{[2-(4-chlorophenyl)-4,4-dimethylcyclohex-1-en-1-yl]methyl}piperazin-1-yl)-N-{[4-({4-[(2-cyanoethyl)(cyclopropyl)amino]cyclohexyl}amino)-3-nitrophenyl]sulfonyl}-2-(1H-pyrrolo[2,3-b]pyridin-5-yloxy)benzamide] and `CC[C@]1(O)CC[C@@H](CNc2ccc(S(=O)(=O)NC(=O)c3ccc(N4CCN(CC5=C(c6ccc(Cl)cc6)CC(C)(C)CC5)CC4)cc3Oc3cnc4[nH]ccc4c3)cc2[N+](=O)[O-])CC1` [Compound 358, 4-(4-{[2-(4-chlorophenyl)-4,4-dimethylcyclohex-1-en-1-yl]methyl}piperazin-1-yl)-N-[(4-{[(trans-4-ethyl-4-hydroxycyclohexyl)methyl]amino}-3-nitrophenyl)sulfonyl]-2-(1H-pyrrolo[2,3-b]pyridin-5-yloxy)benzamide] cannot be ordered by Ki: < 0.01 nM for the first, < 0.01 nM for the second.

Going from `C[C@]1(O)CC[C@@H](COc2ncc(S(=O)(=O)NC(=O)c3ccc(N4CCN(CC5=C(c6ccc(Cl)cc6)CC6(CC5)CC6)CC4)cc3Oc3cnc4[nH]ccc4c3)cc2Cl)CC1` [Compound 341, N-({5-chloro-6-[(trans-4-hydroxy-4-methylcyclohexyl)methoxy]pyridin-3-yl}sulfonyl)-4-(4-{[5-(4-chlorophenyl)spiro[2.5]oct-5-en-6-yl]methyl}piperazin-1-yl)-2-(1H-pyrrolo[2,3-b]pyridin-5-yloxy)benzamide] to `CC1(C)CCC(CN2CCN(c3ccc(C(=O)NS(=O)(=O)c4ccc(OC[C@H]5CC[C@@](C)(O)CC5)c(Cl)c4)c(Oc4cnc5[nH]ccc5c4)c3)CC2)=C(c2ccc(Cl)cc2)C1` [Compound 362, N-({3-chloro-4-[(trans-4-hydroxy-4-methylcyclohexyl)methoxy]phenyl}sulfonyl)-4-(4-{[2-(4-chlorophenyl)-4,4-dimethylcyclohex-1-en-1-yl]methyl}piperazin-1-yl)-2-(1H-pyrrolo[2,3-b]pyridin-5-yloxy)benzamide], the Ki rises from < 0.01 nM to 0.016 nM. The first binds more tightly here.

`CC1(C)CCC(CN2CCN(c3ccc(C(=O)NS(=O)(=O)c4cnc(OCC5CCc6nccn6C5)c(Cl)c4)c(Oc4cnc5[nH]ccc5c4)c3)CC2)=C(c2ccc(Cl)cc2)C1` (stereo not shown) [Compound 342, 4-(4-{[2-(4-chlorophenyl)-4,4-dimethylcyclohex-1-en-1-yl]methyl}piperazin-1-yl)-N-{[5-chloro-6-(5,6,7,8-tetrahydroimidazo[1,2-a]pyridin-6-ylmethoxy)pyridin-3-yl]sulfonyl}-2-(1H-pyrrolo[2,3-b]pyridin-5-yloxy)benzamide] and `CC1(C)CCC(CN2CCN(c3ccc(C(=O)NS(=O)(=O)c4cnc(OC[C@]5(F)CC[C@@H](O)CC5)c(Cl)c4)c(Oc4cnc5[nH]ccc5c4)c3)CC2)=C(c2ccc(Cl)cc2)C1` [Compound 350, N-({5-chloro-6-[(cis-1-fluoro-4-hydroxycyclohexyl)methoxy]pyridin-3-yl}sulfonyl)-4-(4-{[2-(4-chlorophenyl)-4,4-dimethylcyclohex-1-en-1-yl]methyl}piperazin-1-yl)-2-(1H-pyrrolo[2,3-b]pyridin-5-yloxy)benzamide] cannot be ordered by Ki: < 0.01 nM for the first, < 0.01 nM for the second.

`O=C(NS(=O)(=O)c1cnc(OCC2(F)CCN(C3COC3)CC2)c(Cl)c1)c1ccc(N2CCN(CC3=C(c4ccc(Cl)cc4)CC4(CC3)CC4)CC2)cc1Oc1cnc2[nH]ccc2c1` [Compound 345, N-[(5-chloro-6-{[4-fluoro-1-(oxetan-3-yl)piperidin-4-yl]methoxy}pyridin-3-yl)sulfonyl]-4-(4-{[5-(4-chlorophenyl)spiro[2.5]oct-5-en-6-yl]methyl}piperazin-1-yl)-2-(1H-pyrrolo[2,3-b]pyridin-5-yloxy)benzamide] and `CC1(C)CCC(CN2CCN(c3ccc(C(=O)NS(=O)(=O)c4ccc(OCC5(F)CCN(C6COC6)CC5)c(C#N)c4)c(Oc4cnc5[nH]ccc5c4)c3)CC2)=C(c2ccc(Cl)cc2)C1` [Compound 357, 4-(4-{[2-(4-chlorophenyl)-4,4-dimethylcyclohex-1-en-1-yl]methyl}piperazin-1-yl)-N-[(3-cyano-4-{[4-fluoro-1-(oxetan-3-yl)piperidin-4-yl]methoxy}phenyl)sulfonyl]-2-(1H-pyrrolo[2,3-b]pyridin-5-yloxy)benzamide] cannot be ordered by Ki: < 0.01 nM for the first, < 0.01 nM for the second.

`CC1(C)CCC(CN2CCN(c3ccc(C(=O)NS(=O)(=O)c4ccc(OCC5CCC6(CC5)COC6)c([N+](=O)[O-])c4)c(Oc4cnc5[nH]ccc5c4)c3)CC2)=C(c2ccc(Cl)cc2)C1` [Compound 351, 4-(4-{[2-(4-chlorophenyl)-4,4-dimethylcyclohex-1-en-1-yl]methyl}piperazin-1-yl)-N-{[3-nitro-4-(2-oxaspiro[3.5]non-7-ylmethoxy)phenyl]sulfonyl}-2-(1H-pyrrolo[2,3-b]pyridin-5-yloxy)benzamide] and `CC1(C)CCC(CN2CCN(c3ccc(C(=O)NS(=O)(=O)c4ccc(NCC5CCC6(CC5)COC6)c([N+](=O)[O-])c4)c(Oc4cnc5[nH]ccc5c4)c3)CC2)=C(c2ccc(Cl)cc2)C1` [Compound 365, 4-(4-{[2-(4-chlorophenyl)-4,4-dimethylcyclohex-1-en-1-yl]methyl}piperazin-1-yl)-N-({3-nitro-4-[(2-oxaspiro[3.5]non-7-ylmethyl)amino]phenyl}sulfonyl)-2-(1H-pyrrolo[2,3-b]pyridin-5-yloxy)benzamide] cannot be ordered by Ki: < 0.01 nM for the first, < 0.01 nM for the second.

`O=C(NS(=O)(=O)c1ccc(NCC2CCOCC2)c([N+](=O)[O-])c1)c1ccc(N2CCN(CC3=C(c4ccc(Cl)cc4)CCC(CF)(CF)C3)CC2)cc1Oc1cnc2[nH]ccc2c1` [Compound 353, 4-(4-{[2-(4-chlorophenyl)-5,5-bis(fluoromethyl)cyclohex-1-en-1-yl]methyl}piperazin-1-yl)-N-({3-nitro-4-[(tetrahydro-2H-pyran-4-ylmethyl)amino]phenyl}sulfonyl)-2-(1H-pyrrolo[2,3-b]pyridin-5-yloxy)benzamide] and `COCC1(C)CCC(c2ccc(Cl)cc2)=C(CN2CCN(c3ccc(C(=O)NS(=O)(=O)c4ccc(NCC5CCOCC5)c([N+](=O)[O-])c4)c(Oc4cnc5[nH]ccc5c4)c3)CC2)C1` (stereo not shown) [Compound 360, 4-(4-{[2-(4-chlorophenyl)-5-(methoxymethyl)-5-methylcyclohex-1-en-1-yl]methyl}piperazin-1-yl)-N-({3-nitro-4-[(tetrahydro-2H-pyran-4-ylmethyl)amino]phenyl}sulfonyl)-2-(1H-pyrrolo[2,3-b]pyridin-5-yloxy)benzamide] cannot be ordered by Ki: < 0.01 nM for the first, < 0.01 nM for the second.

`CC[C@]1(O)CC[C@H](CNc2ccc(S(=O)(=O)NC(=O)c3ccc(N4CCN(CC5=C(c6ccc(Cl)cc6)CC(C)(C)CC5)CC4)cc3Oc3cnc4[nH]ccc4c3)cc2[N+](=O)[O-])CC1` [Compound 359, 4-(4-{[2-(4-chlorophenyl)-4,4-dimethylcyclohex-1-en-1-yl]methyl}piperazin-1-yl)-N-[(4-{[(cis-4-ethyl-4-hydroxycyclohexyl)methyl]amino}-3-nitrophenyl)sulfonyl]-2-(1H-pyrrolo[2,3-b]pyridin-5-yloxy)benzamide] and `CC1(C)CCC(CN2CCN(c3ccc(C(=O)NS(=O)(=O)c4cnc(NC[C@H]5CC[C@@](C)(O)CC5)c([N+](=O)[O-])c4)c(Oc4cnc5[nH]ccc5c4)c3)CC2)=C(c2ccc(Cl)cc2)C1` [Compound 371, 4-(4-{[2-(4-chlorophenyl)-4,4-dimethylcyclohex-1-en-1-yl]methyl}piperazin-1-yl)-N-[(6-{[(trans-4-hydroxy-4-methylcyclohexyl)methyl]amino}-5-nitropyridin-3-yl)sulfonyl]-2-(1H-pyrrolo[2,3-b]pyridin-5-yloxy)benzamide] cannot be ordered by Ki: < 0.01 nM for the first, < 0.001 nM for the second.

In the case of `CC1(C)CCC(CN2CCN(c3ccc(C(=O)NS(=O)(=O)c4cnc(NCC5CCOCC5)c([N+](=O)[O-])c4)c(Oc4cnc5[nH]ccc5c4)c3)CC2)=C(c2ccc(Cl)cc2)C1` [Compound 364, 4-(4-{[2-(4-chlorophenyl)-4,4-dimethylcyclohex-1-en-1-yl]methyl}piperazin-1-yl)-N-({5-nitro-6-[(tetrahydro-2H-pyran-4-ylmethyl)amino]pyridin-3-yl}sulfonyl)-2-(1H-pyrrolo[2,3-b]pyridin-5-yloxy)benzamide], the Ki is reported as < 0.01 nM.
